The results in this text go back to PubChem BioAssay AID330 (DTP/NCI, 2004).

The structures appear in SMILES notation. Values joined by “and” are separate entries in the source; they are usually repeats but may differ in a detail not shown here. Identical values can stand only once. Toxic doses and inconclusive results are not listed.

For the test, the system named is P388 leukemia ip, CD2F1 mice, survival T/C. Briefly: NCI In Vivo Anticancer Drug Screen. Data for tumor model P388 Leukemia (intraperitoneal) in CD2F1 (CDF1) mice. The following applies: endpoint: median survival time, higher = longer survival. Put shortly:
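Mice carrying the transplanted tumor received test compound or vehicle. Survival was recorded in each group, and the value is the treated-group measurement divided by that of the vehicle-treated control group.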

Where [1] appears, read: dose: 50.0 mg/kg/injection, schedule: Q01DX009 (ip), vehicle: saline with Tween-80.
Setting [2] is: dose: 100.0 mg/kg/injection, schedule: Q01DX009 (ip), vehicle: saline with Tween-80.
[3] abbreviates: dose: 200.0 mg/kg/injection, schedule: Q01DX009 (ip), vehicle: saline with Tween-80.
[4] abbreviates: dose: 50.0 mg/kg/injection, schedule: Q01DX009 (ip), vehicle: saline.
[5] abbreviates: dose: 100.0 mg/kg/injection, schedule: Q01DX009 (ip), vehicle: saline.
Where [6] appears, read: dose: 0.5 mg/kg/injection, schedule: Q01DX009 (ip), vehicle: saline.
[7] abbreviates: dose: 1.0 mg/kg/injection, schedule: Q01DX009 (ip), vehicle: saline.
Setting [8] is: dose: 50.0 mg/kg/injection, schedule: Q01DX009 (ip), vehicle: Klucel (hydroxypropylcellulose) (HPC).
Where [9] appears, read: dose: 100.0 mg/kg/injection, schedule: Q01DX009 (ip), vehicle: Klucel (hydroxypropylcellulose) (HPC).
[10] abbreviates: dose: 200.0 mg/kg/injection, schedule: Q01DX009 (ip), vehicle: Klucel (hydroxypropylcellulose) (HPC).
The mark [11] stands for this setting: dose: 50.0 mg/kg/injection, schedule: Q01DX005 (ip), vehicle: saline with Tween-80.
Setting [12] is: dose: 100.0 mg/kg/injection, schedule: Q01DX005 (ip), vehicle: saline with Tween-80.
[13] abbreviates: dose: 200.0 mg/kg/injection, schedule: Q01DX005 (ip), vehicle: saline with Tween-80.

On to `CC(C)Cn1c(Cl)c(C=O)c2ccccc21`, for which the T/C reads like this: (dose: 100.0 mg/kg/injection, schedule: Q04DX002 (ip), vehicle: Klucel (hydroxypropylcellulose) (HPC)) 101 % of control; (dose: 200.0 mg/kg/injection, schedule: Q04DX002 (ip), vehicle: Klucel (hydroxypropylcellulose) (HPC)) 97 % of control; (dose: 400.0 mg/kg/injection, schedule: Q04DX002 (ip), vehicle: Klucel (hydroxypropylcellulose) (HPC)) 90 % of control.
Turning to `COCOc1c(C)ccc2c1CCC2`, the T/C (dose: 100.0 mg/kg/injection, schedule: Q04DX002 (ip), vehicle: saline with Tween-80) was 91 % of control; the T/C (dose: 200.0 mg/kg/injection, schedule: Q04DX002 (ip), vehicle: saline with Tween-80) is 97 % of control; the T/C (dose: 400.0 mg/kg/injection, schedule: Q04DX002 (ip), vehicle: saline with Tween-80) was 95 % of control.
For `CC(=O)Sc1ccccc1C(=O)NC1CCCCC1`, the T/C is 114 % of control under setting [1], 117 % of control under setting [2] and 114 % of control under setting [3].
On to `C=CCn1nc([O-])[n+]2ccccc12`, for which the T/C (dose: 100.0 mg/kg/injection, schedule: Q01DX001 (ip), vehicle: saline) is 95 % of control; the T/C (dose: 200.0 mg/kg/injection, schedule: Q01DX001 (ip), vehicle: saline) was 95 % of control; the T/C (dose: 400.0 mg/kg/injection, schedule: Q01DX001 (ip), vehicle: saline) is 104 % of control.
As for `CCCNCc1cccc2ccnc(C)c12`, the T/C reads like this: (dose: 50.0 mg/kg/injection, schedule: Q01DX005 (ip), vehicle: saline) 109 % of control; (dose: 100.0 mg/kg/injection, schedule: Q01DX005 (ip), vehicle: saline) 104 % of control; (dose: 200.0 mg/kg/injection, schedule: Q01DX005 (ip), vehicle: saline) 101 % of control.
As for `CC(Nc1ccc(S(=O)(=O)Nc2ncccn2)cc1)c1ccc2cccnc2c1O` (stereo not drawn), the T/C reads like this: (dose: 100.0 mg/kg/injection, schedule: Q01DX001 (ip), vehicle: saline with Tween-80) 94 % of control; (dose: 200.0 mg/kg/injection, schedule: Q01DX001 (ip), vehicle: saline with Tween-80) 98 % of control.
For `Cc1ccc(S(=O)(=O)/N=S(/C)c2ccccc2)cc1` (stereo not drawn), the T/C is 110 % of control (dose: 100.0 mg/kg/injection, schedule: Q04DX003 (ip), vehicle: saline with Tween-80); 100 % of control (dose: 200.0 mg/kg/injection, schedule: Q04DX003 (ip), vehicle: saline with Tween-80); 120 % of control (dose: 400.0 mg/kg/injection, schedule: Q04DX003 (ip), vehicle: saline with Tween-80).
On to `CC(C)(C)N1CC1CN` (stereo not drawn), for which the T/C by setting is: (dose: 25.0 mg/kg/injection, schedule: Q01DX009 (ip), vehicle: saline) 100 % of control; under setting [4], 107 % of control; under setting [5], 105 % of control.
As for `C=CC12COC(=O)C(=C)C1C(O)C1C(=C)C(=O)OC1C2` (stereo not drawn), the T/C runs as follows: under setting [6], 97 % of control; under setting [7], 97 % of control; (dose: 2.0 mg/kg/injection, schedule: Q01DX009 (ip), vehicle: saline) 106 % of control; (dose: 4.0 mg/kg/injection, schedule: Q01DX009 (ip), vehicle: saline) 110 % of control.
Consider `Cc1cc([N+](=O)[O-])c(C)cc1Cl`, for which the T/C (dose: 37.5 mg/kg/injection, schedule: Q04DX003 (ip), vehicle: saline sonified) is 118 % of control; the T/C (dose: 75.0 mg/kg/injection, schedule: Q04DX003 (ip), vehicle: saline sonified) is 100 % of control; the T/C (dose: 150.0 mg/kg/injection, schedule: Q04DX003 (ip), vehicle: saline sonified) was 118 % of control.
Take `O=C1C=C(N2CC2)C(=O)C=C1N1CC1`: the T/C (dose: 0.12 mg/kg/injection, schedule: Q01DX009 (ip), vehicle: saline) was 157 % of control; the T/C (dose: 0.25 mg/kg/injection, schedule: Q01DX009 (ip), vehicle: saline) was 150 % of control and 170 % of control and 196 % of control; the T/C under setting [6] was 153 % of control and 185 % of control and 206 % of control; the T/C under setting [7] was 95 % of control.
With `OCn1nnc2ccccc21`, the T/C is, setting by setting: (dose: 25.0 mg/kg/injection, schedule: Q01DX009 (ip), vehicle: Klucel (hydroxypropylcellulose) (HPC)) 116 % of control; under setting [8], 102 % of control; under setting [9], 112 % of control; under setting [10], 106 % of control.
Take `O=c1c2ccccc2sc2c(N(CCO)CCO)cc3c(c12)CCCC3`: the T/C (dose: 25.0 mg/kg/injection, schedule: Q01DX005 (ip), vehicle: distilled water + Tween-80) is 103 % of control; the T/C (dose: 50.0 mg/kg/injection, schedule: Q01DX005 (ip), vehicle: distilled water + Tween-80) was 101 % of control; the T/C (dose: 100.0 mg/kg/injection, schedule: Q01DX005 (ip), vehicle: distilled water + Tween-80) is 100 % of control; the T/C (dose: 200.0 mg/kg/injection, schedule: Q01DX005 (ip), vehicle: distilled water + Tween-80) was 95 % of control.
On to `CC1OC(OC2C(OC3C[C@@]4(C)C(C[C@H](O)[C@H]5[C@H](C6(C)CCC(C(C)(C)O)O6)CCC54C)[C@]4(C)CC[C@@H](O)C(C)(C)C34)OC(CO)C(O)C2O)C(O)C(O)C1O` (stereo partly drawn) (tested in a mixture with another compound), for which the T/C runs as follows: under setting [8], 101 % of control; under setting [9], 101 % of control; under setting [10], 94 % of control.
In the case of `O=S(=O)(F)c1ncnc2nc[nH]c12`, the T/C is, setting by setting: under setting [11], 93 % of control; under setting [12], 103 % of control; under setting [13], 112 % of control.
The like results for `O=C(O)c1cn(C2CCCCC2)c(=O)[nH]c1=O` were, in that order, 99 % of control, 92 % of control and 92 % of control.
With `CC(C)N(C(=O)c1ncccc1C(=O)c1ccccn1)C(C)C`, the T/C by setting is: under setting [11], 105 % of control; under setting [12], 94 % of control; under setting [13], 94 % of control.
With `NC(CCl)=NCC12CC3CC(CC(C3)C1)C2`, the T/C (dose: 12.5 mg/kg/injection, schedule: Q01DX009 (ip), vehicle: Klucel (hydroxypropylcellulose) (HPC)) is 90 % of control.
As to `O=C(Cc1ccc(OCc2ccccc2)cc1)OCc1ccco1`, the T/C by setting is: under setting [1], 109 % of control; under setting [2], 100 % of control; under setting [3], 100 % of control.
Consider `N#CC1C(=O)NC(=S)NC1c1ccc2c(c1)CCC2` (stereo not drawn), for which the T/C reads like this: under setting [4], 100 % of control; under setting [5], 95 % of control; (dose: 200.0 mg/kg/injection, schedule: Q01DX009 (ip), vehicle: saline) 94 % of control.
As to `COC(=O)C(C)CP(=O)(O)OC` (stereo not drawn), the T/C by setting is: (dose: 50.0 mg/kg/injection, schedule: Q01DX005 (ip), vehicle: water) 97 % of control; (dose: 100.0 mg/kg/injection, schedule: Q01DX005 (ip), vehicle: water) 98 % of control; (dose: 200.0 mg/kg/injection, schedule: Q01DX005 (ip), vehicle: water) 114 % of control.
As to `Cc1ccc(S(=O)(=O)NC(CN(CC(=O)O)N=O)C(=O)O)cc1` (stereo not drawn), the T/C by setting is: (dose: 50.0 mg/kg/injection, schedule: Q01DX005 (ip), vehicle: Klucel (hydroxypropylcellulose) (HPC)) 97 % of control; (dose: 100.0 mg/kg/injection, schedule: Q01DX005 (ip), vehicle: Klucel (hydroxypropylcellulose) (HPC)) 96 % of control; (dose: 200.0 mg/kg/injection, schedule: Q01DX005 (ip), vehicle: Klucel (hydroxypropylcellulose) (HPC)) 98 % of control.
On to `COc1cc2c(c(O)c1O)C(=O)c1c(O)cc(C)cc1C2=O`, for which the T/C (dose: 5.0 mg/kg/injection, schedule: Q01DX009 (ip), vehicle: saline with Tween-80) is 108 % of control; the T/C (dose: 10.0 mg/kg/injection, schedule: Q01DX009 (ip), vehicle: saline with Tween-80) was 117 % of control; the T/C (dose: 20.0 mg/kg/injection, schedule: Q01DX009 (ip), vehicle: saline with Tween-80) is 108 % of control.
As to `CCOC(=O)C1(c2cc(NS(=O)(=O)c3ccccc3)ccc2O)CCCCC1=O` (stereo not drawn), the T/C by setting is: (dose: 12.5 mg/kg/injection, schedule: Q01DX001 (ip), vehicle: saline with Tween-80) 104 % of control; (dose: 25.0 mg/kg/injection, schedule: Q01DX001 (ip), vehicle: saline with Tween-80) 104 % of control; (dose: 50.0 mg/kg/injection, schedule: Q01DX001 (ip), vehicle: saline with Tween-80) 100 % of control.
